According to PubChem BioAssay (NCI):
Several values for one entry are separate records, joined by “and”; a condition that tells them apart may be missing. Equal entries are not always repeated.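 1) Cells in 96-well plates. 2) Compound, 48 h, 5 concentrations. 3) Linear interpolation between surrounding doses. 4) Unreached endpoint = highest concentration. GI50 = concentration required for 50% inhibition of growth. The concentration for full growth arrest is given as TGI.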

How the values were obtained:
Assay in all cases: NCI-60 cell line screen, 48 h
SW-620 colon = test system: SW-620 colon
SNB-75 CNS = test system: SNB-75 CNS
T-47D breast = test system: T-47D breast
SNB-19 CNS = test system: SNB-19 CNS
HCT-15 colon = test system: HCT-15 colon
KM12 colon = test system: KM12 colon
SN12C renal = test system: SN12C renal
OVCAR-4 ovarian = test system: OVCAR-4 ovarian
HOP-62 NSCLC = test system: HOP-62 NSCLC
SK-MEL-2 melanoma = test system: SK-MEL-2 melanoma

| Structure (SMILES) | GI50 (SW-620 colon) [µM] | TGI (SW-620 colon) [µM] | GI50 (SNB-75 CNS) [µM] | TGI (SNB-75 CNS) [µM] | GI50 (T-47D breast) [µM] | TGI (T-47D breast) [µM] | GI50 (SNB-19 CNS) | TGI (SNB-19 CNS) [µM] | GI50 (HCT-15 colon) [µM] | TGI (HCT-15 colon) [µM] | GI50 (KM12 colon) | TGI (KM12 colon) [µM] | GI50 (SN12C renal) [µM] | TGI (SN12C renal) [µM] | GI50 (OVCAR-4 ovarian) | TGI (OVCAR-4 ovarian) [µM] | GI50 (HOP-62 NSCLC) [µM] | TGI (HOP-62 NSCLC) [µM] | GI50 (SK-MEL-2 melanoma) [µM] | TGI (SK-MEL-2 melanoma) [µM] |
| --- | --- | --- | --- | --- | --- | --- | --- | --- | --- | --- | --- | --- | --- | --- | --- | --- | --- | --- | --- | --- |
| CC12CCC3C(CC=C4CC(O)CCC43C)C1C/C(=C\N1CCCC1)C2=O (stereo not given) | > 100 | > 100 | 41.5 | > 100 | 30.2 | > 100 | > 100 µM | > 100 | 87.1 | > 100 | 73.3 µM | > 100 | 85 | > 100 | 61 µM | > 100 | > 100 | > 100 | > 100 | > 100 |
| CCCC1c2c(ccc3ccccc23)Oc2ccc3ccccc3c21 |  | > 100 |  | > 100 |  | > 100 |  | > 100 |  | > 100 |  | > 100 |  | > 100 |  | > 100 |  | > 100 |  | 54.3 |
| Oc1ccc(Cc2ccc(O)c3ncccc23)c2cccnc12 | 0.0417 | > 100 | 0.0368 | > 100 | 0.15 | 0.704 | 0.0361 µM | 29.6 | 0.0712 | > 100 | 0.149 µM | > 100 | 0.0361 | > 100 | 0.371 µM | > 100 | 0.0442 | 1.09 | 0.228 | 0.681 |
| O=Cc1c(-c2cc(O)ccc2O)nc2sccn12 | 25.3 | > 100 | 36.9 | > 100 | 12.3 | > 100 | 42.6 µM | > 100 | 12.5 | 39.3 | 5.05 µM | 20.5 | 12.8 | 34.5 | 14.5 µM | 32.9 | 10.4 | 26.4 | 20.1 | 55.9 |
| COc1ccccc1-[n+]1cc(-c2ccc(-c3ccccc3)cc2)n2c1CCCCC2 | 0.587 | 12.7 | 0.325 | 13.4 | 0.0774 | 11.9 | 0.261 µM | 12.1 | 4.35 | 20.2 | 0.288 µM | 3.17 | 0.288 | 10.5 | 0.116 µM | 12.5 | 1.29 | 15.4 | 0.237 | 2.22 |
| COc1cc(Nc2nc3cc(N)cc(N)c3nc2-c2ccccc2)cc(OC)c1 | 27.2 | > 100 | 3.7 | 44.9 | 4.44 | 23 | 58.3 µM | > 100 | 20 | > 100 | 13.3 µM | 31.2 | 8.62 | > 100 | 17.8 µM | > 100 | 19.6 | 53.8 | 12 | 63.8 |
| COP(=O)(OC)C(NC(c1ccccc1)c1ccccc1)c1ccc2c(c1)OCO2 (stereo not given) | 31.7 | > 100 | 30.5 | 67.2 | 27 | 84.7 | 23.4 µM | 47.4 | 30.1 | 95.1 | 30 µM | 81.3 | 24 | 53.8 | 30.5 µM | 89.9 | 21.5 | 52.2 | 23.8 | 50.2 |
| O=c1c2ccccc2c2ccccc2c(=O)n1-c1cc2c3ccccc3ccc2c2ccccc12 |  | > 100 |  | > 100 |  | > 100 |  | > 100 |  | > 100 |  | > 100 |  | > 100 |  | > 100 |  | > 100 |  | > 100 |
| Nc1ccc2c(SCCSc3c4ccccc4nc4cc(N)ccc34)c3ccccc3nc2c1 |  | > 100 |  | > 100 |  | > 100 |  | > 100 |  | > 100 |  | > 100 |  | > 100 |  | > 100 |  | > 100 |  | > 100 |
| c1ccc(Cc2nc3ccc(Nc4ncnc5ccccc45)cc3[nH]2)cc1 | > 25 | > 25 | > 25 | > 25 | > 25 | > 25 | > 25 µM | > 25 | > 25 | > 25 | > 25 µM | > 25 | 11.1 | > 25 | > 25 µM | > 25 | > 25 | > 25 | > 25 | > 25 |
| COc1cc2oc(=O)ccc2cc1C1OC(=O)C2OC21C (stereo not given) |  | > 100 |  | > 100 |  | > 100 |  | > 100 |  | > 100 |  | > 100 |  | > 100 |  | > 100 |  | > 100 |  | > 100 |
| C[C@@H]1C=C(CCCCCCCCCCC[C@H](O)[C@@H]2CCC(=O)O2)C(=O)O1 | 37.6 | > 100 | > 100 | > 100 | 32.7 | 65.2 | 86.5 µM | > 100 | 25.5 | > 100 | 23.6 µM | 65 | 25.3 | 82.8 | > 100 µM | > 100 | 40.2 | > 100 | 40.8 | > 100 |
| CSc1nc2c(c(=O)[nH]1)N=C1c3ccccc3C(=O)C1C(c1ccc(F)cc1)N2 (stereo not given) | 4.48 | 70.7 | 1.46 | 14.9 | 14.2 | 94.6 | 15.9 µM | 66 | 4.57 | > 100 | 3.77 µM | 15.6 | 28.4 | > 100 | 15.4 µM | 67 | 11.9 | 33.7 | 49.3 | > 100 |
| Cc1c(C#N)cccc1-c1cc(-c2cn(Cc3cccc(C(C)(C)O)n3)nn2)nc(N)n1 | 51.3 | > 100 | 2.96 | 39 | 6.9 | 62.5 | 47.4 µM | > 100 | 23.2 | > 100 | 47.4 µM | > 100 | 17.2 | > 100 | 9.69 µM | > 100 | 22.2 | > 100 | 21.3 | 79.3 |
| Cc1ccc2c(c1)nc(C(=O)c1ccco1)c(C(F)(F)F)[n+]2[O-] | 1.75 | 3.33 | 76.7 | > 100 | 50.3 | > 100 | > 100 µM | > 100 | > 100 | > 100 | > 100 µM | > 100 | > 100 | > 100 | 76.3 µM | > 100 | > 100 | > 100 | > 100 | > 100 |
| COCCn1cc(-c2csc(-c3c[nH]c4ccccc34)n2)c2cccnc21 | 3.52 | > 100 | 1.43 | 24.7 | 0.418 | > 100 | 16.2 µM | > 100 | 2.34 | > 100 | 0.762 µM | > 100 | > 100 | > 100 | 1.76 µM | > 100 | 2.82 | > 100 | 7.38 | > 100 |
| CC(C)(C)N1CCC1C(N)=O (stereo not given) | > 100 | > 100 | > 100 | > 100 | > 100 | > 100 | > 100 µM | > 100 | > 100 | > 100 | > 100 µM | > 100 | > 100 | > 100 | > 100 µM | > 100 | > 100 | > 100 | > 100 | > 100 |
| CC(=O)Nc1ccc(/C=C/[N+](=O)[O-])cc1 |  | 11 |  | 7.64 |  | > 27.9 |  | 20.5 |  | > 19.6 |  | 26.7 |  | 9.8 |  | 7.97 |  | 21.4 |  | 25.6 |
| O=C(/C=C/c1cccnc1)NCCCCC1CCN(C(=O)c2ccccc2)CC1 | < 0.01 | > 100 | > 73.6 | > 100 | 1.93 | > 90.3 | 0.615 µM and 4.43 µM | > 100 | < 0.01 | > 100 | 0.0145 µM and < 0.0118 µM | > 100 | < 0.01 | > 100 | > 66 µM and 26.2 µM | > 100 | > 100 | > 100 | > 100 | > 100 |
| CCN(Cc1cccc(OC)c1)c1ccc(CO)c(Cl)c1 | 0.763 | > 100 | 16.3 | 62 | 0.165 | 1.83 | 24 µM | > 100 | 14.8 | 66.6 | 17.1 µM | 40.5 | 12.9 | 32.1 | 0.291 µM | 14.3 | 3.23 | 39.2 | 2.81 | 21.3 |
| OC1(C(O)(c2ccc(-c3ccccc3)cc2)c2ccc(-c3ccccc3)cc2)CCCCC1 |  | > 100 |  | > 100 |  | > 100 |  | > 100 |  | > 100 |  | > 100 |  | > 100 |  | > 100 |  | > 100 |  | > 100 |
| O=C1CCC(Cc2ccc(Cl)cc2Cl)C(=O)N1 (stereo not given) |  | > 100 |  | > 100 |  | > 100 |  | > 100 |  | > 100 |  |  |  | > 100 |  | > 100 |  | > 100 |  | > 100 |
| OCc1cn(Cc2cccc(Cl)c2)c2ccccc12 | 0.586 | 33.3 | 7.7 | 29 | < 0.0208 | 5.15 | 22.5 µM | > 96.5 | 5.79 | 43.8 | 16.2 µM | 33.8 | 12 | 42.6 | 0.107 µM | 11.3 | 9.74 | 47.3 | 3.16 | 14.8 |
| Cc1c(N=Nc2ccc([N+](=O)[O-])cc2)nc2scc(-c3ccccc3)n12 |  | > 100 |  | > 100 |  | > 100 |  | > 100 |  | > 92.2 |  | > 100 |  | > 100 |  | > 100 |  | > 100 |  | > 100 |
| C1CC[N-]CC1.C1CC[N-]CC1.C1CC[N-]CC1.C1CC[N-]CC1.[Cl][Rh][Cl] | 6.12 | > 100 | 6.69 | 80.3 | 3.87 | > 100 | 4.75 µM | > 100 | 41.2 | > 100 | 7.04 µM | 21.8 | 1.4 | > 100 | 5.43 µM | > 100 | 4.41 | > 100 | 12.7 | 41.8 |
| NC(=O)c1cnc(N[C@@H]2CCCC[C@@H]2N)nc1Nc1cccc(-n2nccn2)c1 | 3.81 | 13.4 | 2.21 | 12.4 | 6.44 | 22.1 | 10.7 µM | 25 | 3.81 | 14.9 | 2.15 µM | 10.2 | 4.13 | 17.6 | 7.01 µM | 19.6 | 4.69 | 17.7 | 3.29 | 15.2 |
| OCCCCC#Cc1ccccc1C#Cc1ccccc1 | 15.7 | 34.4 | 16 | 42.1 | 7.53 | > 100 | 0.153 µM | 37.2 | 11.7 | 24.2 |  |  | 13.5 | 27.8 | 18 µM | 53.2 | 16.3 | 30.6 | 40 | > 100 |
| O=c1cccc(C#CC#C[C@H]2O[C@@H]2CO)o1 | 0.238 | 0.596 | 1.89 | 3.52 | 0.401 | 1.47 | 6.24 µM | 14.4 | 0.353 | 1.29 | 0.986 µM | 3.47 | 0.149 | 0.333 |  |  | 0.423 | 1.54 | 5.53 | > 21 |
